# Laboratory results published in patent publication US20150250786A1, “PYRIMIDINE HYDROXY AMIDE COMPOUNDS AS PROTEIN DEACETYLASE INHIBITORS AND METHODS OF USE THEREOF” (THE TRUSTEES OF THE UNIVERSITY OF PENNSYLVANIA, priority 2012, published 2015).
# Where “and” joins values, the source holds several entries; their conditions need not be identical. Equal values may be shown once. Read-outs that look alike come from different tables or passages of the source.
# What was measured:
# [1] = test system: RN46A-B14 serotonergic cell line; experiment: α-tubulin K40 acetylation in RN46A-B14 cells (Western blot); type: cell-based, rat; conditions: 4 hours; TSA 0.6 μM, others 2.5 μM
# Description: In FIG. 3, it was observed that subchronic treatment, consisting of 5 treatments at 48, 28, 24, 4 and ½ hours before sacrifice, led to greater increase in tubulin acetylation than did chronic treatment of 1 injection/day for 21 days. For cell culture, RN46B cells were treated for with 0.25, 2.5 or 25 μM drug in DMSO for 1, 4 or 24 hours as indicated. Tukey post-hoc analysis: * P=0.01 to 0.05, ** P=0.001-0.01, ***P<0.001 when compared with vehicle treatment.
# (§1) Results are shown as percent change normalized to the vehicle treatment condition. The horizontal hard line depicts average and the dotted lines depict SEM of the vehicle treated wells. Representative Western blot images are presented. […] Representative Western blot images are presented. […] The drugs (5 mg/kg) were administered subchronically (at 24 h, 4 h and 30 min prior to sacrifice) to HDAC6 KO and WT littermates. The changes in tubulin acetylation were measured in tissue lysates from cortex (ctx), hippocampus (Hpc), dorsal Raphe nucleus (DRN) and cerebellum (cb). The tubulin acetylation levels in drug-treated mice are expressed as percent change of the vehicle-treated mice of the corresponding genotype. The horizontal lines depict the average tubulin acetylation±SEM in the vehicle treated mice. The representative Western blot images show the changes induced by each drug treatment in the hippocampus (left column) and dorsal raphe (right column) of WT and HDAC6 KO mice.
# In contrast to the class I isoforms HDAC2 and 3, which are expressed highly and ubiquitously in the mouse brain, HDAC6 mRNA expression appears to be restricted to a small number of brain areas, with highest signal observed in DRN (FIG. 13f). […] No changes in total α-tubulin expression were detected (FIG. 14a).
# [2] = test system: RN46A-B14 serotonergic cell line; experiment: Histone H3K9 acetylation in RN46A-B14 cells (Western blot); type: cell-based, rat; conditions: 2.5 μM, 4 hours
# [3] = test system: α-tubulin acetylation in mouse whole brain lysates; experiment: α-tubulin acetylation in whole brain lysates after single i.p. administration; type: in vivo; conditions: compound 73 5 mg/kg, compound 101 50 mg/kg, tubastatin A 10 mg/kg, 30 min, 1 h, 4 h
# [4] = test system: α-tubulin K40 acetylation in cortex, hippocampus, DRN, cerebellum; experiment: α-tubulin acetylation in brain regions after subchronic administration, WT and HDAC6 KO mice; type: in vivo, mouse
# Description: as §1, with “The drugs (5 mg/kg) were administered subchronically (at 24 h, 4 h and 30 min prior to sacrifice) to HDAC6 KO and WT littermates.” left out
# [5] = test system: histone H3 lysine 9 acetylation; experiment: Histone H3K9 acetylation in vivo (Western blot, ChIP); set-up: species or system mouse
# mice [6] = experiment: Open-field test; type: in vivo, mouse
# mice [7] = experiment: Marble-burying task; type: in vivo, mouse; conditions: acute administration
# mice [8] = experiment: NIH test; type: in vivo, mouse; conditions: acute, 50 mg/kg
# mice [9] = experiment: Elevated plus maze (EPM); type: in vivo, mouse; conditions: acute administration
# [10] = test system: NIH Swiss mice; C57BL/6J HDAC6 WT and KO mice; experiment: Tail suspension test (TST); type: in vivo, mouse; conditions: for immobility in TST: NIH Swiss mice
# mice [11] = experiment: Chronic social defeat (CSD) and social interaction test; type: in vivo, mouse; conditions: compound 73 5 mg/kg
# Description: Additionally, when combined with a dose of Citalopram with lower activity, these compounds seemed to have an additive effect (See FIG. 10). The dose of Citalopram chosen for this experiment was based on literature stating 2 mg/kg should be subactive, but this dose was found still showing an effect. Mice then underwent chronic social defeat stress, in which the mice are exposed to an aggressive resident mouse for 5 minutes daily for 10 days and are then tested on the 11th day in the social interaction test. Mice treated with vehicle for 20 total days, beginning 10 days before the defeat, show reduced time spent in the interaction zone when a target mouse is present when compared with control mice. […] The percent of mice found to be resilient, defined as spending more time in the interaction zone than the lowest control (i.e. ˜52 s), is higher in HDAC6 inhibitor groups. All behavior testing done using NIH Swiss mice, age 6-10 weeks. Tukey post-hoc analysis: * P=0.01 to 0.05, ** P=0.001-0.01, ***P<0.001 compared with vehicle treated mice.
# The effects were observed 30 minutes after acute 50 mg/kg i.p. injection, but not for the lower dose (5 mg/kg). Combination of subactive doses of the HDAC6 selective inhibitors (5 mg/kg) and citalopram (0.5 mg/kg) produced robust potentiation of anti-immobility activity (n=8-29 per condition). […] No difference was observed between HDAC6 WT and KO when treated with the vehicle (n=6-15 per condition). FIG. 16c is a timeline showing treatment period, social defeat and social interaction (SI) testing.
# A pro-resilient phenotype in the mouse CSD paradigm after serotonin-selective KO of HDAC6 was previously reported (Espallergues et al, 2012). Whether a chronic pharmacological inhibition of HDAC6 can replicate that phenotype is studied. […] On day 21, 24 h after the last injection, the mice were tested in the social interaction test. […] Significant effects were also observed when data was evaluated in terms of proportion of mice reaching criterion for resiliency.
# [12] = Pharmacokinetics and brain bio-distribution in mice; type: in vivo, mouse; conditions: mouse; for Kp: brain, calculated over 2 hours
# Description: […] Plasma samples were taken from all mice upon sacrifice. Brain samples were taken from the mice sacrificed at 5 and 15 minutes and 1 and 4 hours. The brain samples were homogenized in PBS and centrifuged at 14000 rpm for 5 minutes. The supernatant from the brain homogenate and the plasma samples were injected onto a LC/MS/MS for analysis. The compound level in the samples was determined by a standard curve in the appropriate matrix. Pharmacokinetic parameters were determined from the raw data by WinNonLin.
# [13] = Body weight gain during chronic treatment; type: in vivo, mouse; conditions: 4 weeks of treatment
smiles,measurement,setting,value
"O=C(NO)c1cnc(NC2(c3ccccc3)CC2)nc1 [Compound 73, N-hydroxy-2-((1-phenylcyclopropyl)amino)pyrimidine-5-carboxamide]",acetylated (lysine 40) fraction of α-tubulin,[1],increases
same,change in histone H3K9 acetylation,[2],no significant change
same,α-tubulin acetylation in whole brain lysates,[3],significant increases
same,α-tubulin acetylation over baseline levels,"[4]; HDAC6 KO mice, identical treatment regimens",did not produce increases
same,"α-tubulin acetylation in cortex, hippocampus, DRN, cerebellum","[4]; wild-type mice, 24 h, 4 h, 30 m before sacrifice, compound 73 5 mg/kg, compound 101 50 mg/kg",significant increases
same,"histone H3K9 acetylation enrichment at promoter DNA (cFOS, BDNF promoter 4), ChIP","[5]; hippocampus, repeated i.p., compound 73 5 mg/kg, sodium butyrate 1.2 g/kg",no concurrent changes
same,acetylation of histone 3 at lysine 9 in Western blot,[5]; in vivo treatment,did not significantly alter
same,exploratory activity in novel open-field arena,"mice [6]; acute, compounds 73, 101 50 mg/kg, tubastatin A 10 mg/kg",hyperlocomotor effects
same,distance in the center of the open field,"mice [6]; mouse, in vivo",602±96 beam breaks
same,number of marbles buried,mice [7],significantly reduced
same,latency to eat in the NIH test,mice [8],significantly decreased
same,behavioral changes / time in the open arms of the maze,mice [9],neither compound 73 nor compound 101 produced behavioral changes
same,immobility in TST,[10]; 5 mg/kg,No significant effect
same,activity in TST two hours after the injection,"[10]; 20 mg/kg citalopram, 50 mg/kg compound 73",still had significant activity
same,immobility in TST,"[10]; 50 mg/kg i.p., 30 minutes",Significant reductions
same,anti-immobility effect in HDAC6 KO mice,"[10]; C57BL/6J background, versus WT littermates",no significant effect
same,anti-immobility effects in C57BL/6J WT mice,"[10]; mouse, in vivo",still significant
same,"time in the interaction zone versus vehicle, defeated mice","mice [11]; 20 days treatment, fluoxetine 20 mg/kg, compound 101 50 mg/kg",significantly higher
same,percentage of resilient mice,"mice [11]; after CSD, fluoxetine 20 mg/kg, compound 101 50 mg/kg",81%
same,time spent in the corner zones,mice [11]; versus vehicle,decrease
same,Kp,"[12]; C57BL/6J, intraperitoneal, read-out: AUCBrain/AUCplasma",1.22
same,concentration at 30 min,"[12]; C57BL/6J, plasma, intraperitoneal, 5 mg/kg, read-out: 30 min plasma concentration (ng/ml) - 5 mg/kg",89 ng/mL
same,concentration at 30 min,"[12]; C57BL/6J, plasma, intraperitoneal, 50 mg/kg, read-out: 30 min plasma concentration (ng/ml) - 50 mg/kg",515 ng/mL
same,Cmax,"[12]; C57BL/6J, plasma, ip, 5 mg/kg, mice, acute i.p. dosing, read-out: Cmax",494 ng/mL
same,half-life,"[12]; C57BL/6J, plasma, ip, mice, acute i.p. dosing, read-out: T½ plasma (converted)",12 min
same,Kp,"[12]; intraperitoneal, read-out: AUCBrain/AUCplasma ratio",> 1
same,concentration at 30 min,"[12]; plasma, intraperitoneal, acute 50 mg/kg injection, read-out: plasma level at t=30 minutes",515 ng/mL and 1.9 µM
same,concentration at 2 h,"[12]; plasma, intraperitoneal, read-out: plasma concentration after two hours",< 10 ng/mL
same,half-life,"[12]; plasma, intraperitoneal, read-out: plasmatic half-life",12 min
same,body weight gain,[13],no significant effect
